Laboratory results taken from patent US20140050779A1, “[…]-2 INHIBITORS AND USES THEREOF” (SINGAPORE HEALTH SERVICES PTE. LTD., priority 2011, published 2014).
“Also recorded” adds a separate entry of the source.

Experiments:
[1] = test system: TG-5; test: Western blot of TG proteins in human scleral fibroblasts after muscarinic agents; type: cell-based; conditions: 0.01-10 μM for 5 days
[2] = test system: TGase 2 (TGM-2) transcript; test: qPCR of TGases mRNA in mouse scleral fibroblasts after muscarinic agents; type: cell-based; conditions: 0.01-10 μM for 5 days, qPCR normalized to GAPDH
Description: P2 cultured mouse scleral fibroblasts were treated with atropine or carbachol at different concentrations of 0.01 μM, 0.1 μM, […], 5 μM and 10 μM for 5 days. Following 5 days of treatment, the total RNA was extracted from these cells and TGases transcript level was quantified via qPCR analysis. Height of bars show the means of three independent samples and error bars represent standard deviation. Values are normalized against GAPDH house keeping genes.
Murine scleral derived fibroblasts were cultured to passage 2 and treated to exogenous atropine or carbachol at 0.01 μM, 0.1 μM, 1 μM, 5 μM and 10 μM for 5 days. Following 5 days of treatment, the total RNA was extracted from these cells and RT-qPCR performed to determine transcript levels of TGM-2. The levels were normalized to GAPDH internal control. […] Height of bars or symbols represents mean and error bars SD. *: p<0.05 and **: p<0.001.
All cells used in examples described herein were between passages 2-4. Passaged cells were plated at a concentration of 2×10^5/mL into 6 well plates containing DMEM with 10% FBS. The cells were seen to attach to the bottom of the culture wells after 4 hours. […] The supernatant was poured into a new eppendorf tube and cell concentrations were determined using the Dc Protein assay Kit (Bio-Rad, MA). […] Cell lysate was collected for relative quantitative (q) PCR and protein analysis at day 5. […]

## CN1[C@@H]2CC[C@H]1C[C@@H](OC(=O)C(CO)c1ccccc1)C2 (some centres unmarked) [atropine]
[1]
  TG-5 protein level: reduced
[2]
  TGase 2 (TGM-2) transcript level: reduction; also recorded: down regulated
